Source: patent US12331046B2, “CTPS1 inhibitors and uses thereof” (Nimbus Clotho, Inc., priority 2020, dated 2025)

target: human CTPS1 (Homo sapiens (Human), UniProt P17812); test: hCTPS1 biochemical assay (ADP-Glo); conditions: hCTPS1 25 nM, ATP 120 uM, UTP 160 uM, GTP 60 uM, L-Glutamine 100 uM, 25 degrees C
Sequence (P17812 whole entry): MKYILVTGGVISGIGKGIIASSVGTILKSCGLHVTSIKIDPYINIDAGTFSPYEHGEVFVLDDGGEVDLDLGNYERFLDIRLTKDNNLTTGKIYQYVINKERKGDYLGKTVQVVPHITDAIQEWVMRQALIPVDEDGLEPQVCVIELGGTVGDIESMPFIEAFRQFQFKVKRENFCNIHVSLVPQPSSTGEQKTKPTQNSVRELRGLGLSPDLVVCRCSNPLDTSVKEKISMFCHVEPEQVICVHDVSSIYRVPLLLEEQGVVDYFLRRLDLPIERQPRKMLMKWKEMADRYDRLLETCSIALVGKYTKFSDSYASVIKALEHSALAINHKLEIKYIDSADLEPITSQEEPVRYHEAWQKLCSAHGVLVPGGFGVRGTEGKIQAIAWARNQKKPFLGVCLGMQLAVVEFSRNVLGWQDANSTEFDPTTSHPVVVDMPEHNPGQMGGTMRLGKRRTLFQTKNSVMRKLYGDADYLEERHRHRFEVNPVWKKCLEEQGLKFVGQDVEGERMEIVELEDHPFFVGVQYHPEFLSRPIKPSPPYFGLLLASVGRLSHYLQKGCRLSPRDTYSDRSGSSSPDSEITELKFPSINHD

Row | Structure (SMILES) | IC50 [nM]
1 | CCOc1cncc(-c2cnc(C(=O)N[C@@H](COC)c3cc(NS(=O)(=O)C4CC4)ccn3)s2)n1 [I-187] | < 100
2 | CCOc1cncc(-c2cnc(C(=O)N[C@@H](C[C@@H]3CCCCN3)c3cc(NS(=O)(=O)C4CC4)ccn3)s2)n1 (single isomer, unassigned) [I-139] | < 100
3 | CCOc1cncc(-c2cnc(C(=O)N[C@H](c3cc(NS(=O)(=O)C4CC4)ccn3)[C@H]3C[C@H](N(C)C)C3)s2)n1 (single isomer, unassigned) [I-106] | < 100
4 | CCOc1cncc(-c2ccc(NC(=O)C(NC(=O)CCOCCNC(=O)OC(C)(C)C)c3csc(NS(=O)(=O)C4CC4)n3)cc2)n1 (stereo not shown) [Z-7, tert-butyl 2-(3-(1-(2-(cyclopropanesulfonamido)thiazol-4-yl)-2-(4-(6-ethoxypyrazin-2-yl)phenylamino)-2-oxoethylamino)-3-oxopropoxy)ethylcarbamate] | < 100
5 | CCOc1cncc(-c2cnc(C(=O)NC(CN3CCN(C)CC3)c3cc(NS(=O)(=O)C4CC4)ccn3)s2)n1 (stereo not shown) [I-207] | < 100
6 | CCOc1cncc(-c2cnc(C(=O)N[C@H](C[C@@H]3CCCCN3)c3cc(NS(=O)(=O)C4CC4)ccn3)s2)n1 (single isomer, unassigned) [I-141] | < 100
7 | CCOc1cncc(-c2cnc(C(=O)N[C@H](CN3C[C@H]4C[C@@H]3CO4)c3cc(NS(=O)(=O)C4CC4)ccn3)s2)n1 [I-112, N—((R)-2-((1R,4R)-2-oxa-5-azabicyclo[2.2.1]heptan-5-yl)-1-(4-(cyclopropanesulfonamido)pyridin-2-yl)ethyl)-5-(6-ethoxypyrazin-2-yl)thiazole-2-carboxamide] | < 100
8 | CCOc1cncc(-c2cnc(C(=O)N[C@H](CN3CCCCC3)c3cc(NS(=O)(=O)C4CC4)ccn3)s2)n1 (single isomer, unassigned) [I-213] | < 100
9 | CCOc1cncc(N2CCN(C(=O)NCc3cc(NS(=O)(=O)C4CC4)ccn3)C(=O)C2)n1 [I-28] | ≥ 1000
10 | CCOc1cncc(-c2cnc(C(=O)NC(CCN3CCCCC3)c3cc(NS(=O)(=O)C4CC4)ccn3)s2)n1 (stereo not shown) [I-176, N-(1-(4-(cyclopropanesulfonamido)pyridin-2-yl)-3-(piperidin-1-yl)propyl)-5-(6-ethoxypyrazin-2-yl)thiazole-2-carboxamide] | < 100
11 | CCOc1cncc(-c2ccc(C(=O)NC3(c4cccc(NS(=O)(=O)C(F)F)c4)CC3)s2)n1 [I-269, N-(1-(3-((difluoromethyl)sulfonamido)phenyl)cyclopropyl)-5-(6-ethoxypyrazin-2-yl)thiophene-2-carboxamide] | < 100
12 | CCOc1cncc(-c2ccc3c(c2)CN(Cc2cc(NS(=O)(=O)C4CC4)ccn2)C3=O)n1 [I-43, N-(2-((5-(6-ethoxypyrazin-2-yl)-1-oxoisoindolin-2-yl)methyl)pyridin-4-yl)cyclopropanesulfonamide] | 100 to 1000
13 | CCOc1cncc(-c2ccc(C(=O)NCc3cnnc(NS(=O)(=O)C4CC4)c3)nc2)n1 [I-246, N-[(6-cyclopropanesulfonamidopyridazin-4-yl)methyl]-5-(6-ethoxypyrazin-2-yl)pyridine-2-carboxamide] | < 100
14 | CCOc1cncc(-c2cnc(C(=O)N[C@@H](CCN3CCCC3)c3cc(NS(=O)(=O)C4CC4)ccn3)s2)n1 [I-159, (S)—N-(1-(4-(cyclopropanesulfonamido)pyridin-2-yl)-3-(pyrrolidin-1-yl)propyl)-5-(6-ethoxypyrazin-2-yl)thiazole-2-carboxamide] | < 100
15 | CCOc1cncc(-c2cnc(C(=O)N3CCNCC3c3cc(NS(=O)(=O)C4CC4)ccn3)s2)n1 (stereo not shown) [I-223, N-(2-(1-(5-(6-ethoxypyrazin-2-yl)thiazole-2-carbonyl)piperazin-2-yl)pyridin-4-yl)cyclopropanesulfonamide] | 100 to 1000
16 | CC(C)Oc1cncc(-c2ccc(C(=O)NCc3cc(NS(=O)(=O)C4CC4)ccn3)cc2)n1 [I-33] | < 100
17 | CCOc1cncc(-c2ncc(C(=O)N3CCC[C@@H]3c3cccc(NS(=O)(=O)C(F)F)c3)s2)n1 [I-74, N-[3-[(2R)-1-[2-(6-ethoxypyrazin-2-yl)-1,3-thiazole-5-carbonyl]pyrrolidin-2-yl]phenyl]-1,1-difluoromethanesulfonamide] | < 100
18 | O=C(c1ncc(-c2cnc3[nH]cc(CC(F)F)c3n2)s1)N1CCCC1c1ccnc(NS(=O)(=O)C2CC2)n1 (stereo not shown) [I-137, N-[4-(1-{5-[7-(2,2-difluoroethyl)-5H-pyrrolo[2,3-b]pyrazin-2-yl]-1,3-thiazole-2-carbonyl}pyrrolidin-2-yl)pyrimidin-2-yl] cyclopropanesulfonamide] | < 100
19 | O=C(NC1(c2csc(NS(=O)(=O)C3CC3)n2)CC1)c1cnc2ccccc2c1 [I-5, N-(1-(2-(cyclopropanesulfonamido)thiazol-4-yl)cyclopropyl)quinoline-3-carboxamide] | ≥ 1000
20 | CCOc1cncc(-c2cnc(C(=O)NC(CN3CCCC3)c3cc(NS(=O)(=O)C4CC4)ccn3)s2)n1 (stereo not shown) [I-208] | < 100
21 | CCOc1cncc(-n2cnc(C(=O)NCc3cc(NS(=O)(=O)C4CC4)ccn3)c2)n1 [I-238] | 100 to 1000
22 | CCOc1cncc(-c2cnc(C(=O)N[C@@H](CCN(C)C)c3cccc(NS(=O)(=O)C4CC4)c3)s2)n1 (single isomer, unassigned) [I-144] | < 100
23 | CCOc1cncc(-c2cnc(C(=O)NC(CCN(C)C)c3cc(NS(=O)(=O)C4CC4)ccn3)s2)n1 (stereo not shown) [I-201, N-(1-(4-(cyclopropanesulfonamido)pyridin-2-yl)-3-(dimethylamino)propyl)-5-(6-ethoxypyrazin-2-yl)thiazole-2-carboxamide] | < 100
24 | CCOc1cncc(-n2cnc(C(=O)N3CCC[C@H]3c3ccnc(NS(=O)(=O)C4CC4)n3)c2)n1 [I-276, N-[4-[(2S)-1-[1-(6-ethoxypyrazin-2-yl)imidazole-4-carbonyl]pyrrolidin-2-yl]pyrimidin-2-yl]cyclopropanesulfonamide] | < 100
25 | CCOc1cncc(-c2ccc(C(=O)N3CCCC3c3ccnc(NS(=O)(=O)C4CC4)n3)nc2)n1 (stereo in doubt) [I-47, N-[4-[(2R)-1-[5-(6-ethoxypyrazin-2-yl)pyridine-2-carbonyl]pyrrolidin-2-yl]pyrimidin-2-yl]cyclopropanesulfonamide] | ≥ 1000
26 | CCOc1cncc(-c2ccc(C(=O)N3CCC[C@H]3c3ccnc(NS(=O)(=O)C4CC4)n3)c(F)c2)n1 [I-286, N-[4-[(2S)-1-[4-(6-ethoxypyrazin-2-yl)-2-fluorobenzoyl]pyrrolidin-2-yl]pyrimidin-2-yl]cyclopropanesulfonamide] | < 100

Second part, the compound after the results:

Row | IC50 [nM] | Structure (SMILES)
27 | ≥ 1000 | Cc1c(-c2ccc(C(=O)NC3(c4csc(NS(=O)(=O)C5CC5)n4)CC3)cc2)cnn1C [I-261, N-[1-(2-cyclopropanesulfonamido-1,3-thiazol-4-yl)cyclopropyl]-4-(1,5-dimethylpyrazol-4-yl)benzamide]
28 | < 100 | CCOc1cncc(-c2cnc(C(=O)N3CCC[C@@H]3c3cccc(NS(=O)(=O)C4CC4)n3)s2)n1 [I-230, N-[6-[(2R)-1-[5-(6-ethoxypyrazin-2-yl)-1,3-thiazole-2-carbonyl]pyrrolidin-2-yl]pyridin-2-yl]cyclopropanesulfonamide]
29 | < 100 | CCOc1cncc(-c2cnc(C(=O)N[C@@H](C)c3cccc(NS(=O)(=O)C(F)F)c3)s2)n1 [I-273, N-[(1S)-1-[3-(difluoromethanesulfonamido)phenyl]ethyl]-5-(6-ethoxypyrazin-2-yl)-1,3-thiazole-2-carboxamide]
30 | 100 to 1000 | Cc1cc2c(-c3cnc(C(=O)NCc4cc(NS(=O)(=O)C5CC5)ccn4)s3)cncn2n1 [I-185]
31 | ≥ 1000 | O=C(NC1(c2csc(NS(=O)(=O)C3CC3)n2)CC1)c1ccc(-c2cnc3n2CCCC3)cc1 [I-260, N-[1-(2-cyclopropanesulfonamido-1,3-thiazol-4-yl)cyclopropyl]-4-[5H, 6H, 7H, 8H-imidazo[1,2-a]pyridin-3-yl]benzamide]
32 | < 100 | CCOc1cncc(-c2cnc(C(=O)N[C@H](CCN3CC[C@@H](F)C3)c3cc(NS(=O)(=O)C4CC4)ccn3)s2)n1 [I-127, N—((R)-1-(4-(cyclopropanesulfonamido)pyridin-2-yl)-3-((R)-3-fluoropyrrolidin-1-yl)propyl)-5-(6-ethoxypyrazin-2-yl)thiazole-2-carboxamide]
33 | 100 to 1000 | CCOc1cncc(-c2cnc(C(=O)N3CCC[C@H]3c3cccc(NS(=O)(=O)C4CC4)n3)s2)n1 [I-231, N-[6-[(2S)-1-[5-(6-ethoxypyrazin-2-yl)-1,3-thiazole-2-carbonyl]pyrrolidin-2-yl]pyridin-2-yl]cyclopropanesulfonamide]
34 | ≥ 1000 | O=C(NC1(c2csc(NS(=O)(=O)C3CC3)n2)CC1)c1cc2ccccc2cn1 [I-3, N-(1-(2-(cyclopropanesulfonamido)thiazol-4-yl)cyclopropyl)isoquinoline-3-carboxamide]
35 | < 100 | CCOc1cncc(-c2cnc(C(=O)N[C@@H](CCN(C)C)c3cc(NS(=O)(=O)C4CC4)ccn3)s2)n1 [I-190, (S)—N-(1-(4-(cyclopropanesulfonamido)pyridin-2-yl)-3-(dimethylamino)propyl)-5-(6-ethoxypyrazin-2-yl)thiazole-2-carboxamide]
36 | ≥ 1000 | CCOc1cncc(-c2cccc(C(=O)NCc3cccc(NS(=O)(=O)C(F)F)c3)c2)n1 [I-280, N-[[3-(difluoromethanesulfonamido)phenyl]methyl]-3-(6-ethoxypyrazin-2-yl)benzamide]
37 | < 100 | O=C(NCc1cc(NS(=O)(=O)C2CC2)ccn1)c1ncc(-c2cnn3ccc(C(F)(F)F)cc23)s1 [I-177]
38 | ≥ 1000 | CCc1nc2cc(C(=O)NCc3cc(NS(=O)(=O)C4CC4)ccn3)ccc2[nH]c1=O [I-171, N-((4-(cyclopropanesulfonamido)pyridin-2-yl)methyl)-3-ethyl-2-oxo-1,2-dihydroquinoxaline-6-carboxamide]
39 | < 100 | CCOc1cncc(-c2cnc(C(=O)NC(CN3CCCCC3)c3cc(NS(=O)(=O)C4CC4)ccn3)s2)n1 (stereo not shown) [I-224]
40 | < 100 | CCOc1cncc(-c2cnc(C(=O)NC(C)(C)c3cccc(NS(=O)(=O)C(F)F)c3)s2)n1 [I-262, N-{2-[3-(difluoromethanesulfonamido)phenyl]propan-2-yl}-5-(6-ethoxypyrazin-2-yl)-1,3-thiazole-2-carboxamide]
